This is an account of results in US12042520B2 (SOLUVEG SA, priority 2015, dated 2024).

The nature of data set [1]: Curcumin plasma concentration after intravenous administration in the pig (for comparison). It counts as in vivo. The conditions noted are these: 0.60 grams for 23 kg.
For data set [2] the following is noted: piperine used with curcumin; cited from earlier work.

The structures appear in SMILES notation.

Turning to `COc1cc(/C=C/C(=O)CC(=O)/C=C/c2ccc(O)c(OC)c2)ccc1O` [Curcumin, curcumin], in data set [1], the “Time for which the plasma concentration remains at a constant level” value was 10 h and the “Time of plasma concentration peak” value was found to be 24 h. The concentration at 0 hours in data set [1] (plasma, 0.6 grams for 23 kg of live weight, 0 hours) stood at 0 ng/mL. Also, in data set [1] (plasma, 0.6 grams for 23 kg of live weight, 3 hours), the concentration at 3 hours turned out to be 537 ng/mL. The compound further registered a concentration at 6 hours in data set [1] (plasma, 0.6 grams for 23 kg of live weight, 6 hours) of 557 ng/mL. The compound further showed a concentration at 9 hours in data set [1] (plasma, 0.6 grams for 23 kg of live weight, 9 hours) of 713 ng/mL. The compound further came in with a concentration at 24 hours in data set [1] (plasma, 0.6 grams for 23 kg of live weight, 24 hours) of 724 ng/mL. In data set [1] (plasma, 0.6 grams for 23 kg of live weight, 48 hours), this compound returned a concentration at 48 hours of 537 ng/mL. In data set [1] (plasma, 0.6 grams for 23 kg of live weight, 72 hours), this compound yielded a concentration at 72 hours of 385 ng/mL.

Turning to `O=C(/C=C/C=C/c1ccc2c(c1)OCO2)N1CCCCC1` [piperine], the “Effect in the intestine (in words)” value in data set [2] is listed as “irritating effect in the intestine”.
